Key:
[1] = Inhibition of PDK1 (unknown origin) by SelectScreen kinase assay
[2] = Inhibition of VEGFR-2 (unknown origin) induced tube formation in HUVECs cocultured with fibroblasts measured after 11 days with media renewing every 3 days by staining based analysis
[3] = target: Cyclin-dependent kinase 2 (Homo sapiens, UniProt P24941); assay: Inhibition of CDK2 (unknown origin)

IC50 [3] | SMILES | other results
 | COc1cc2c(cc1OC)CN(CC(=O)Nc1ccc3c(c1)/C(=C/c1cnc[nH]1)C(=O)N3)CC2 | IC50 [1]: 98000 nM
 | CCN(CC)CCN1Cc2[nH]c(/C=C3\C(=O)Nc4ccc(Br)cc43)c(C)c2C1=O | IC50 [2]: 179 nM
38 nM | O=C1Nc2ccc(Br)cc2/C1=N/NC(=O)c1cc2cc(Br)ccc2o1 | 
53 nM | COc1ccc2c(c1)/C(=N/NC(=O)c1cc3cc(Br)ccc3o1)C(=O)N2 | 
